Experimental data as given in patent US20240199613A1 (TAKEDA PHARMACEUTICAL COMPANY LIMITED, priority 2021, published 2024).

Key:
[1] = target: human activated kallikrein enzyme (Homo sapiens, UniProt P03952); test: Inhibition of activated plasma kallikrein, fluorogenic peptide substrate (PFR-AMC) assay, 500 pM enzyme format; assay type: biochemical; conditions: 500 pM activated kallikrein, 300 uM PFR-AMC, 30 min preincubation, 10 min reaction, room temperature; read-out: Primary Dose Response Assay: Average EC50
Chain of human activated kallikrein enzyme (P03952 391-638 limits assumed): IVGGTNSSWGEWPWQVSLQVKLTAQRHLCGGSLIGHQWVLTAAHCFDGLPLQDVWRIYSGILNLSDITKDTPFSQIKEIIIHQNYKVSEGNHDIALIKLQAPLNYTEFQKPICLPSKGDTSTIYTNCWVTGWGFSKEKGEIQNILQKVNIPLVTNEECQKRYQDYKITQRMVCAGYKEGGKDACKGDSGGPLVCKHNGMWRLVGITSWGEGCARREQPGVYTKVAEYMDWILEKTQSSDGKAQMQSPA
Chain of human activated kallikrein enzyme (P03952 20-390 partner limits assumed): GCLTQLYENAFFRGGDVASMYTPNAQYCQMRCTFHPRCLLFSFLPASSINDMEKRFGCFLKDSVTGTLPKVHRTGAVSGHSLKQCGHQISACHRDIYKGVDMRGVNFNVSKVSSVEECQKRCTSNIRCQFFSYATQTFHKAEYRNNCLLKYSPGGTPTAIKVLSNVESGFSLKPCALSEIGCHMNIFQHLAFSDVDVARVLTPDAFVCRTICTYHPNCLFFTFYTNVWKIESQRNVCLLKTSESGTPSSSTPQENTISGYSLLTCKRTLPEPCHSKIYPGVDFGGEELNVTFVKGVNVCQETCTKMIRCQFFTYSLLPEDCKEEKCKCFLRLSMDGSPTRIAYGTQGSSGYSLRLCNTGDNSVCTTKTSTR
How it was run: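 500 pM enzyme preincubated 30 min at room temperature with inhibitor in 20 mM Tris pH 7.5, 150 mM NaCl, 1 mM EDTA, 0.1% PEG-400, 0.1% Triton X-100. Reaction started with 300 uM PFR-AMC and run 10 min at room temperature. Fluorescence read at 380 nm excitation/460 nm emission.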

[2] = target: T1, plasma kallikrein (Homo sapiens, UniProt P03952); test: Neat human plasma assay: contact pathway-activated (FXIIa) plasma, PFR-AMC substrate; assay type: biochemical; conditions: citrated human plasma (78% final), 10 nM human FXIIa, 100 μM PFR-AMC, room temperature
T1 construct: from tissue; host or cells: sodium citrate collected human plasma (78% final)
T1 sequence (P03952 391-638 limits assumed): as the sequence (P03952 391-638 limits assumed) above
T1 sequence (P03952 20-390 partner limits assumed): as the sequence (P03952 20-390 partner limits assumed) above
Description: To analyze inhibition of plasma kallikrein in an ex vivo setting, the potency of compounds was measure in contact pathway-activated plasma assays. In a fluorogenic peptide substrate assay, test compounds dissolved in DMSO were added to sodium citrate collected human or rat plasma in a 96-well microplate. Alternatively, citrated plasma was collected from rats administered the compounds orally or by IV. 10 nM of human FXIIa (Enzyme Research Laboratories) diluted in pKal buffer (20 mM Tris-HCl, pH 7.5, 150 mM NaCl, 1 mM EDTA, 0.1% PEG-8000, and 0.1% Triton X-100) was added to the plasma, followed by the 100 μM of the profluorescent, synthetic plasma kallikrein substrate PFR-AMC (also diluted in pKal buffer). Final plasma concentration in the reaction was 78%. Fluorescence was immediately monitored by excitation/emission wavelengths of 360 nm/480 nm respectively over a period of 5 minutes in a microplate reader. The resulting linear increase in fluorescence emission (reflecting pKal proteolysis of PFR-AMC substrate) was fit to extract a proteolytic rate (fluorescent units over time), and this rate was subsequently plotted against compound inhibitor concentration. Resulting plots were fit to a standard 4-parameter IC50/IC90 equation to determine min/max values, IC50/90, and slope. All experimental steps were performed at room temperature.

EC50 [1] [nM]	IC90 [2] [nM]	SMILES
≤ 1	400 to 1500	Cc1ccnc([C@H]2C[C@@H]2c2cc(CO)c3ccc(NCc4cn5cc(C6CC6)cc(N6CC(=O)N(C)C6=O)c5n4)cc3n2)n1 (racemic) [Example 77, rac-1-(6-cyclopropyl-2-(((4-(hydroxymethyl)-2-((1S*,2S*)-2-(4-methylpyrimidin-2-yl)cyclopropyl)quinolin-7-yl)amino)methyl)imidazo[1,2-a]pyridin-8-yl)-3-methylimidazolidine-2,4-dione]
≤ 1	≤ 400	Cc1ccnc([C@H]2C[C@@H]2c2cc(N3CCOCC3)c3ccc(NCc4cn5cc(C6CC6)cc(N6CC(=O)N(C)C6=O)c5n4)cc3n2)n1 (racemic) [Example 40, rac-1-(6-cyclopropyl-2-((1S*,2S)-2-(4-methylpyrimidin-2-yl)cyclopropyl)-4-morpholinoquinolin-7-yl)amino)methyl)imidazo[1,2-a]pyridin-8-yl)-3-methylimidazolidine-2,4-dione]
≤ 1	1500 to 10000	Cc1ccnc([C@H]2C[C@@H]2c2nc(=O)c3ccc(NCc4cn5cc(C6CC6)cc(N6CC(=O)N(C)C6=O)c5n4)cc3[nH]2)n1 (racemic) [Example 8, rac-1-(6-cyclopropyl-2-(((2-((1S*,2S*)-2-(4-methylpyrimidin-2-yl)cyclopropyl)-4-oxo-1,4-dihydroquinazolin-7-yl)amino)methyl)imidazo[1,2-a]pyridin-8-yl)-3-methylimidazolidine-2,4-dione]
≤ 1	400 to 1500	Cc1ccnc([C@H]2C[C@@H]2c2cc(C(C)(C)O)c3ccc(NCc4cn5cc(C6CC6)cc(N6CC(=O)N(C)C6=O)c5n4)cc3n2)n1 (racemic) [Example 95, rac-1-(6-cyclopropyl-2-(((4-(2-hydroxypropan-2-yl)-2-((1S*,2S*)-2-(4-methylpyrimidin-2-yl)cyclopropyl)quinolin-7-yl)amino)methyl)imidazo[1,2-a]pyridin-8-yl)-3-methylimidazolidine-2,4-dione]
≤ 1	400 to 1500	Cc1ccnc([C@H]2C[C@@H]2c2cc(OC3COC3)c3ccc(NCc4cn5cc(C6CC6)cc(N6CC(=O)N(C)C6=O)c5n4)cc3n2)n1 (racemic) [Example 33, rac-1-(6-cyclopropyl-2-(((2-((1S*,2S*)-2-(4-methylpyrimidin-2-yl)cyclopropyl)-4-(oxetan-3-yloxy)quinolin-7-yl)amino)methyl)imidazo[1,2-a]pyridin-8-yl)-3-methylimidazolidine-2,4-dione]
≤ 1	≤ 400	Cc1ccnc([C@H]2C[C@@H]2c2cc(N(C)C)c3ccc(NCc4cn5cc(C6CC6)cc(N6CC(=O)N(C)C6=O)c5n4)cc3n2)n1 (racemic) [Example 29, rac-1-(6-cyclopropyl-2-(((4-(dimethylamino)-2-((1S*,2S*)-2-(4-methylpyrimidin-2-yl)cyclopropyl)quinolin-7-yl)amino)methyl)imidazo[1,2-a]pyridin-8-yl)-3-methylimidazolidine-2,4-dione]
≤ 1	≤ 400	Cc1ccnc([C@H]2C[C@@H]2c2cc(N3CC(O)C3)c3ccc(NCc4cn5cc(C6CC6)cc(N6CC(=O)N(C)C6=O)c5n4)cc3n2)n1 [Example 31, 1-(6-cyclopropyl-2-(((4-(3-hydroxyazetidin-1-yl)-2-((1S,2S)-2-(4-methylpyrimidin-2-yl)cyclopropyl)quinolin-7-yl)amino)methyl)imidazo[1,2-a]pyridin-8-yl)-3-methylimidazolidine-2,4-dione]
≤ 1	≤ 400	Cc1ccnc([C@H]2C[C@@H]2c2cc(N3CC4(COC4)C3)c3ccc(OCc4cn5cc(C6CC6)cc(N6CC(=O)N(C)C6=O)c5n4)cc3n2)n1 [Example 43, 1-[6-cyclopropyl-2-[[2-[(1S,2S)-2-(4-methylpyrimidin-2-yl)cyclopropyl]-4-(2-oxa-6-azaspiro[3.3]heptan-6-yl)-7-quinolyl]oxymethyl]imidazo[1,2-a]pyridin-8-yl]-3-methyl-imidazolidine-2,4-dione]
